Results as given in US20080009418A1, “Selective Inhibitors” (Alchemia LTD., priority 2004, published 2008).

How the values were obtained:
Human Melanocortin (MC4) = target: T1, Human Melanocortin (MC4) (Homo sapiens, UniProt P32245); test: Radioligand binding, human melanocortin MC4 membranes, FlashPlate, [125I]-NDP-αMSH; conditions: compound at 10 μM, [125I]-NDP-αMSH
T1 construct: purchased Perkin Elmer Biosignal
Summary of the method: (§1)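 Cloned human receptor membranes were coated onto FlashPlate wells and incubated with radioligand and compound (added from a 0.5 mM DMSO daughter plate) for 1 hour at room temperature in the dark. Scintillation counting gave percent inhibition, with DMSO defining total and reference ligand defining non-specific binding.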

Mouse urotensin (mUR2) = target: T2, Mouse urotensin (mUR2) (Mus musculus, UniProt Q8VIH9); test: Radioligand binding, mouse urotensin mUR2 membranes, FlashPlate, [125I]-Urotensin II; conditions: compound at 10 μM; [125I]-Urotensin II
T2 construct: purchased Perkin Elmer Biosignal
T2 sequence (Q8VIH9 1-385): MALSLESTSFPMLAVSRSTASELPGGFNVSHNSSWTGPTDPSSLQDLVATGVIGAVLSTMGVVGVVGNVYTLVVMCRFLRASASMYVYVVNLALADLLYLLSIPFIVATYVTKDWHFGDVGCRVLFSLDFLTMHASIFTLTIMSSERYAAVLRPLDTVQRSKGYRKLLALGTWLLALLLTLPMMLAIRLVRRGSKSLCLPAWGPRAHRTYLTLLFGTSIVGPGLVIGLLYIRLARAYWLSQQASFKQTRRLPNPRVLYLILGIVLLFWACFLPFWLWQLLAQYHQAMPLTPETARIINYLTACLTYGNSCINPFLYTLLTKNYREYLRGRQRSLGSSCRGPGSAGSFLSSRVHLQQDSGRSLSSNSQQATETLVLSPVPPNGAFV
Summary of the method: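 Cloned mouse urotensin (mUR2) receptor membranes from Perkin Elmer Biosignal were immobilized in FlashPlate microplates using a proprietary coating. Each well got 19.5 μl buffer, then 0.5 μl of DMSO, reference ligand, or compound. Adding 5 μl of [125I]-Urotensin II, diluted to 5× final concentration in binding buffer, started binding. Plates were sealed with TopSeal-A and incubated 1 hour at room temperature in the dark. Wells were counted for 30 seconds each on a TopCount after a 60-second delay, and percentage inhibition was calculated.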

Human neurokinin (NK1) = target: T3, Human neurokinin (NK1) (Homo sapiens, UniProt P25103); test: Radioligand binding, human neurokinin NK1 membranes, filtration, [125I]-Substance P; conditions: compound at 10 μM; [125I]-Substance P
T3 construct: purchased Perkin Elmer Biosignal
Summary of the method: (§2)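 Membranes from cloned human receptors were incubated with compound and radioligand for 1 hour at room temperature. Bound ligand was collected on 0.3% PEI-soaked filters, washed with cold 50 mM Tris-HCl pH 7.4, and counted by scintillation. Percent inhibition was computed against DMSO totals and reference-ligand nonspecific wells.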

Human opioid (ORL1) = target: T4, Human opioid (ORL1) (Homo sapiens, UniProt P41146); test: Radioligand binding, human opioid ORL1 membranes, FlashPlate, [125I]-Nociceptin; conditions: compound at 10 μM; [125I]-Nociceptin
T4 construct: purchased Perkin Elmer Biosignal
Summary of the method: as §1

Human κ-Opioid (KOP) = target: T5, Human κ-Opioid (KOP) (Homo sapiens, UniProt P41145); test: Radioligand binding, human κ-opioid (KOP) membranes, filtration, [3H]-Diprenorphine; conditions: compound at 10 μM, [3H]-Diprenorphine
T5 construct: purchased Perkin Elmer Biosignal
Summary of the method: as §2

Human δ-opioid (DOP) = target: T6, Human δ-opioid (DOP) (Homo sapiens, UniProt P41143); test: Radioligand binding, human δ-opioid (DOP) membranes, FlashPlate, [3H]-Bremazocine; conditions: compound at 10 μM; [3H]-Bremazocine
T6 construct: purchased Perkin Elmer Biosignal
Summary of the method: as §1

Human Melanocortin (MC3) = target: T7, Human Melanocortin (MC3) (Homo sapiens, UniProt P41968); test: Radioligand binding, human melanocortin MC3 membranes, FlashPlate, [125I]-NDP-αMSH; conditions: compound at 10 μM, [125I]-NDP-αMSH
T7 construct: purchased Perkin Elmer Biosignal
Summary of the method: as §1

Human melanocortin (MC5) = target: T8, Human melanocortin (MC5) (Homo sapiens, UniProt P33032); test: Radioligand binding, human melanocortin MC5 membranes, FlashPlate, [125I]-NDP-αMSH; conditions: compound at 10 μM, [125I]-NDP-αMSH
T8 construct: purchased Perkin Elmer Biosignal
Summary of the method: as §1

[1] = target: T9, Human neuropeptide Y (NPY-Y1) (Homo sapiens, UniProt P25929); test: Radioligand binding, human neuropeptide Y NPY-Y1 membranes, FlashPlate, [125I]-PYY; conditions: compound at 10 μM; [125I]-PYY
T9 construct: purchased Perkin Elmer Biosignal
T9 sequence (P25929 1-384): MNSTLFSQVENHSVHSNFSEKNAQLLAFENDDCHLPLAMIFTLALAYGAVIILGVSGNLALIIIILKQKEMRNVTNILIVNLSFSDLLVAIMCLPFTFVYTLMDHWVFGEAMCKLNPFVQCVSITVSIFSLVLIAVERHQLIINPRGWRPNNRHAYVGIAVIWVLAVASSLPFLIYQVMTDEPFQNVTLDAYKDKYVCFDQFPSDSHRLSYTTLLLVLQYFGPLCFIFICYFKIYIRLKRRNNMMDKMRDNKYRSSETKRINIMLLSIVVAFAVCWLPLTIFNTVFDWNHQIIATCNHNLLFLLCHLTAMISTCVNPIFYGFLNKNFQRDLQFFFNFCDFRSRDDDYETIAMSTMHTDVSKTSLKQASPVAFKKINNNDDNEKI
Summary of the method: as §1

[2] = target: T10, Human melanin-concentrating hormone (MCH1) (Homo sapiens, UniProt Q99705); test: Radioligand binding, human melanin-concentrating hormone MCH1 membranes, FlashPlate, [125I]-S36057; conditions: compound at 10 μM, [125I]-S36057
T10 construct: purchased Perkin Elmer Biosignal
Summary of the method: as §1

Human μ-opioid (MOP) = target: T11, Human μ-opioid (MOP) (Homo sapiens, UniProt P35372); test: Radioligand binding, human μ-opioid (MOP) membranes, FlashPlate, [3H]-Naloxone; conditions: compound at 10 μM; [3H]-Naloxone
T11 construct: purchased Perkin Elmer Biosignal
Summary of the method: as §1

T5 sequence (P41145 whole entry): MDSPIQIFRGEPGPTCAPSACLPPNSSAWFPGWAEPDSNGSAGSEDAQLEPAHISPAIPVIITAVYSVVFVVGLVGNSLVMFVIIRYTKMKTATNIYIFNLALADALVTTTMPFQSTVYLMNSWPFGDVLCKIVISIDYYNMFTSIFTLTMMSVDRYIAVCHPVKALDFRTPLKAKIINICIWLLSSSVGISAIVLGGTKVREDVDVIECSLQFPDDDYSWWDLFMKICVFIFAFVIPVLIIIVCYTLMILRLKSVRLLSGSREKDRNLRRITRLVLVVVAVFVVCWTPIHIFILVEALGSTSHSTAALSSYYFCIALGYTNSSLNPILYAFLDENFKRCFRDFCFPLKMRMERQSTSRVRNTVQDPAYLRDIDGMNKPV
T11 sequence (P35372 whole entry): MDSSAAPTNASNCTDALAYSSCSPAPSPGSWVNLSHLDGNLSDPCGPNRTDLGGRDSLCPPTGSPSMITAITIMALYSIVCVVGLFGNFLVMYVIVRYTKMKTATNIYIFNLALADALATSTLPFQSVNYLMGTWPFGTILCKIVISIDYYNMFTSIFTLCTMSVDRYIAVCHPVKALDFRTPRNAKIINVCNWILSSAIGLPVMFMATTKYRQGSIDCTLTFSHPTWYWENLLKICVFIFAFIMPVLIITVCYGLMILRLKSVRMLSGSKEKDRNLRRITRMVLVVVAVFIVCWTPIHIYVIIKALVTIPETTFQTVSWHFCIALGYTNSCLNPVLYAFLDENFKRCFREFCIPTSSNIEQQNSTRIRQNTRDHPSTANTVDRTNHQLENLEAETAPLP
T7 sequence (P41968 whole entry): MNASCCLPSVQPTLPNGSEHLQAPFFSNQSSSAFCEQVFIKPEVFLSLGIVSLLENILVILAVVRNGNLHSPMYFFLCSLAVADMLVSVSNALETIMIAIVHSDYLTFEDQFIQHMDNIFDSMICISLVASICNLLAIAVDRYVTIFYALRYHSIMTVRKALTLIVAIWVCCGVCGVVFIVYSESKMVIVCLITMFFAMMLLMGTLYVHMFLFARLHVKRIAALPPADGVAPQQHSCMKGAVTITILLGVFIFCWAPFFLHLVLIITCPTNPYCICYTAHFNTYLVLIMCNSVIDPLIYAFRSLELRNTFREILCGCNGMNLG
T6 sequence (P41143 whole entry): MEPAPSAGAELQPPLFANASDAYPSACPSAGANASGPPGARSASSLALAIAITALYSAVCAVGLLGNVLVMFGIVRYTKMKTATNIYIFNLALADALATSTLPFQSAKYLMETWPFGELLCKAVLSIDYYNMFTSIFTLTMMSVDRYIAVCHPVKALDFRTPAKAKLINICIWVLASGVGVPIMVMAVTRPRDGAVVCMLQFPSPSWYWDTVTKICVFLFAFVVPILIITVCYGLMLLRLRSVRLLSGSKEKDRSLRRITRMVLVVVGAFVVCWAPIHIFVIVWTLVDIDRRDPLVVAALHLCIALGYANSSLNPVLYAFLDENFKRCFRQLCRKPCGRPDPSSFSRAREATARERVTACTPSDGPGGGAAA
T3 sequence (P25103 whole entry): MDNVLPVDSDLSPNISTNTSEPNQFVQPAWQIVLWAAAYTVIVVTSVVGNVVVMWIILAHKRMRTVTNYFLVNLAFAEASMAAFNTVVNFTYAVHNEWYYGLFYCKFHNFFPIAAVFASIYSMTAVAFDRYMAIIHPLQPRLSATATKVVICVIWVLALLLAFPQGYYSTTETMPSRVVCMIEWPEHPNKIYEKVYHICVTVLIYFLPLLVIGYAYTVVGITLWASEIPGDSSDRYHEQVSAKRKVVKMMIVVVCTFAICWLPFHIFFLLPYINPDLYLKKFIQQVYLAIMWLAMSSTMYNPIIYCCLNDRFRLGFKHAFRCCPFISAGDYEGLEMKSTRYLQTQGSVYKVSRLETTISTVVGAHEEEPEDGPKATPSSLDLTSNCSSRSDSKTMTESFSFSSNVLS
T10 sequence (Q99705 whole entry): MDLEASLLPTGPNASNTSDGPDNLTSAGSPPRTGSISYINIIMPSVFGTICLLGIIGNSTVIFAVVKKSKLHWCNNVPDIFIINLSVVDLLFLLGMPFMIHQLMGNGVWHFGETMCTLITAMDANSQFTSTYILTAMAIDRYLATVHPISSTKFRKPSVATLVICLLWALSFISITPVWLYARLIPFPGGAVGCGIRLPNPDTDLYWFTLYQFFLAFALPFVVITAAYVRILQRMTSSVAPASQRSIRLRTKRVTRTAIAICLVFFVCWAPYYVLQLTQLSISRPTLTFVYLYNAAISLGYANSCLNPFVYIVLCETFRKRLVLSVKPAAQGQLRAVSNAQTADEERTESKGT
T1 sequence (P32245 whole entry): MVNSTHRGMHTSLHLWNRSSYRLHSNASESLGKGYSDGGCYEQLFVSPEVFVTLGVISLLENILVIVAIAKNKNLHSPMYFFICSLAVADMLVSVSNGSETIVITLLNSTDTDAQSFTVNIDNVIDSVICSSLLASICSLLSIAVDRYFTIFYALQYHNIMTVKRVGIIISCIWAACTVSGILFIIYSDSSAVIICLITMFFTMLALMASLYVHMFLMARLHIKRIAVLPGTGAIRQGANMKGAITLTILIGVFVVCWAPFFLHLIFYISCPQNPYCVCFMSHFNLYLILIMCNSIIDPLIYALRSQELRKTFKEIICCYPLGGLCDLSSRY
T8 sequence (P33032 whole entry): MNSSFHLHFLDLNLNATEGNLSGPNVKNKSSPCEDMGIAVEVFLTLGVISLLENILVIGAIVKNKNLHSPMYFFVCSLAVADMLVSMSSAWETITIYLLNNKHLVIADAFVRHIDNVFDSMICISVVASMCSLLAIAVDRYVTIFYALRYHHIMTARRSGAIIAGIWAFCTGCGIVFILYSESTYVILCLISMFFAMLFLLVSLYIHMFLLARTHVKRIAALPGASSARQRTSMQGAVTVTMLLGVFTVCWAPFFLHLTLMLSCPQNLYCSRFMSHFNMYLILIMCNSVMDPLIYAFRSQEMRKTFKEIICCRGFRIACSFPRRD
T4 sequence (P41146 whole entry): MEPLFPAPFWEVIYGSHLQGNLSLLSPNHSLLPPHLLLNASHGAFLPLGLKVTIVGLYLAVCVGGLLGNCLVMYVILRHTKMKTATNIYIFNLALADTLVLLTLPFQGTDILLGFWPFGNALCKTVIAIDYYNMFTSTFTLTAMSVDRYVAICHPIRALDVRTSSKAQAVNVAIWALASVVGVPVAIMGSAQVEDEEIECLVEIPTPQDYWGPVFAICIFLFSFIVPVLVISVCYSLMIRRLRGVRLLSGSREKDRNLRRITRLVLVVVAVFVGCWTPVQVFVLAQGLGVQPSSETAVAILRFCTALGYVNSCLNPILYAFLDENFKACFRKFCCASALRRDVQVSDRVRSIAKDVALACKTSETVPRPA

Row | SMILES | A4: inhibition of radioligand binding, human melanocortin (MC4) (Human Melanocortin (MC4); 10 µM) | A11: inhibition of radioligand binding, mouse urotensin (mUR2) (Mouse urotensin (mUR2)) | A8: inhibition of radioligand binding, human neurokinin (NK1) (Human neurokinin (NK1)) | A10: inhibition of radioligand binding, human opioid (ORL1) (Human opioid (ORL1)) | A2: inhibition of radioligand binding, human κ-opioid (KOP) (Human κ-Opioid (KOP)) | A1: inhibition of radioligand binding, human δ-opioid (DOP) (Human δ-opioid (DOP)) | A3: inhibition of radioligand binding, human melanocortin (MC3) (Human Melanocortin (MC3); 10 µM) | A5: inhibition of radioligand binding, human melanocortin (MC5) (Human melanocortin (MC5); 10 µM) | A9: inhibition of radioligand binding, human neuropeptide Y (NPY-Y1) [1] | A6: inhibition of radioligand binding, human melanin-concentrating hormone (MCH1) ([2]; 10 µM) | A7: inhibition of radioligand binding, human μ-opioid (MOP) (Human μ-opioid (MOP)) | A4: inhibition of radioligand binding, human melanocortin (MC4) (Human Melanocortin (MC4)) | A3: inhibition of radioligand binding, human melanocortin (MC3) (Human Melanocortin (MC3)) | A5: inhibition of radioligand binding, human melanocortin (MC5) (Human melanocortin (MC5)) | A6: inhibition of radioligand binding, human melanin-concentrating hormone (MCH1) [2] | A2: inhibition of radioligand binding, human κ-opioid (KOP) (Human κ-Opioid (KOP); 10 µM)
1 | N=C(N)NCC(=O)N[C@H]1C(OCc2ccc(Cl)cc2)O[C@H](COCc2ccccc2)[C@@H](O)[C@@H]1OCc1ccc(-c2ccccc2)cc1 (stereo partly drawn) [compound 518] | − (“−” indicates less than 50% inhibition at 10 μM) | − (“−” indicates less than 50% inhibition at 10 μM) | + (“+” indicates greater than 50% inhibition at 10 μM) | − (“−” indicates less than 50% inhibition at 10 μM) | − (“−” indicates less than 50% inhibition at 10 μM) | − (“−” indicates less than 50% inhibition at 10 μM) | − (“−” indicates less than 50% inhibition at 10 μM) | − (“−” indicates less than 50% inhibition at 10 μM) | − (“−” indicates less than 50% inhibition at 10 μM) | − (“−” indicates less than 50% inhibition at 10 μM) | − (“−” indicates less than 50% inhibition at 10 μM) | – | – | – | – | –
2 | CSC1OC(COCc2ccccc2)C(O)C(OCc2cccc(N)c2)C1NC(=O)Cc1c[nH]c2ccccc12 (stereo not drawn) [compound 322] | – | − (“−” indicates less than 50% inhibition at 10 μM) | + (“+” indicates greater than 50% inhibition at 10 μM) | − (“−” indicates less than 50% inhibition at 10 μM) | − (“−” indicates less than 50% inhibition at 10 μM) | − (“−” indicates less than 50% inhibition at 10 μM) | – | – | − (“−” indicates less than 50% inhibition at 10 μM) | – | − (“−” indicates less than 50% inhibition at 10 μM) | − (“−” indicates less than 50% inhibition at 10 μM) | − (“−” indicates less than 50% inhibition at 10 μM) | − (“−” indicates less than 50% inhibition at 10 μM) | − (“−” indicates less than 50% inhibition at 10 μM) | –
3 | N=C(N)NCC(=O)NC1C(OCc2ccc(Cl)cc2)OC(COCc2ccc3ccccc3c2)C(O)C1OCc1ccc(Cl)cc1 (single isomer, unassigned) [compound 508] | – | − (“−” indicates less than 50% inhibition at 10 μM) | + (“+” indicates greater than 50% inhibition at 10 μM) | + (“+” indicates greater than 50% inhibition at 10 μM) | – | − (“−” indicates less than 50% inhibition at 10 μM) | + (“+” indicates greater than 50% inhibition at 10 μM) | – | − (“−” indicates less than 50% inhibition at 10 μM) | – | − (“−” indicates less than 50% inhibition at 10 μM) | + (“+” indicates greater than 50% inhibition at 10 μM) | – | + (“+” indicates greater than 50% inhibition at 10 μM) | + (“+” indicates greater than 50% inhibition at 10 μM) | + (“+” indicates greater than 50% inhibition at 10 μM)
